From patent US12655116B2, “Substituted isophthalic acid diamides” (Bayer Aktiengesellschaft, priority 2020, dated 2026)

What was measured:
[1] = test system: ECHCG; test: Pre-emergence herbicidal action against ECHCG; assay type: in vivo, Echinochloa crus-galli; settings: Echinochloa crus-galli, 504 h, 80 g/ha
Summary of the method: (§1)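 Seeds sown in sandy loam, soil-covered; compound sprayed on soil surface pre-emergence. Application: WP/EC, 600–800 l/ha, 0.2% wetting agent. Readout: visual % damage at 3 weeks.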

[2] = test system: AVEFA; test: Post-emergence herbicidal action against AVEFA; assay type: in vivo, Avena fatua; settings: Avena fatua, 504 h, 20 g/ha, visual assessment about 3 weeks after treatment, 100% = plants have died, 0% = like control plants
Summary of the method: (§2)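 Sandy loam, greenhouse; treatment 2–3 weeks after sowing, one-leaf stage. Aqueous suspension or emulsion from WP/EC sprayed on foliage (600–800 l/ha, 0.2% wetting agent). Readout: visual % action, ~3 weeks.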

[3] = test system: VIOTR; test: Pre-emergence herbicidal action against VIOTR; assay type: in vivo, Viola tricolor; settings: Viola tricolor, 504 h; for pest or weed control at 20 g/ha: dosage 20 g/ha; for pest or weed control at 80 g/ha: dosage 80 g/ha
Summary of the method: as §1

[4] = test system: ALOMY; test: Pre-emergence herbicidal action against ALOMY; assay type: in vivo, Alopecurus myosuroides; settings: Alopecurus myosuroides, 504 h, pre-emergence; for pest or weed control at 80 g/ha: scored visually after 3 weeks vs untreated controls (100% = plants have died, 0% = like control plants)
Summary of the method: as §1

[5] = test system: AMARE; test: Pre-emergence herbicidal action against AMARE; assay type: in vivo, Amaranthus retroflexus; settings: Amaranthus retroflexus, 504 h, scored visually after 3 weeks vs untreated controls, 100% = plants have died, 0% = like control plants
Summary of the method: as §1

[6] = test system: MATIN; test: Post-emergence herbicidal action against MATIN; assay type: in vivo, Matricaria inodora; settings: Tripleurospermum inodorum, 504 h; for pest or weed control at 20 g/ha: dosage 20 g/ha
Summary of the method: as §2

[7] = test system: AMARE; test: Post-emergence herbicidal action against AMARE; assay type: in vivo, Amaranthus retroflexus; settings: Amaranthus retroflexus, 504 h, 20 g/ha, visual assessment about 3 weeks after treatment, 100% = plants have died, 0% = like control plants
Summary of the method: as §2

[8] = test system: ECHCG; test: Post-emergence herbicidal action against ECHCG; assay type: in vivo, Echinochloa crus-galli; settings: Echinochloa crus-galli, 504 h; for pest or weed control at 20 g/ha: dosage 20 g/ha
Summary of the method: as §2

[9] = test system: ABUTH; test: Post-emergence herbicidal action against ABUTH; assay type: in vivo, Abutilon theophrasti; settings: Abutilon theophrasti, 504 h, visual assessment about 3 weeks after treatment vs untreated controls; for pest or weed control at 5 g/ha: dosage 5 g/ha; for pest or weed control at 20 g/ha: dosage 20 g/ha
Summary of the method: as §2

[10] = test system: DIGSA; test: Pre-emergence herbicidal action against DIGSA; assay type: in vivo, Digitaria sanguinalis; settings: Digitaria sanguinalis, 504 h; for pest or weed control at 20 g/ha: dosage 20 g/ha; for pest or weed control at 80 g/ha: dosage 80 g/ha
Summary of the method: as §1

[11] = test system: AVEFA; test: Pre-emergence herbicidal action against AVEFA; assay type: in vivo, Avena fatua; settings: Avena fatua, 504 h, pre-emergence; for pest or weed control at 20 g/ha: scored visually after 3 weeks, 100% = plants have died, 0% = like control plants
Summary of the method: as §1

[12] = test system: VERPE; test: Pre-emergence herbicidal action against VERPE; assay type: in vivo, Veronica persica; settings: Veronica persica, 504 h, dosage 80 g/ha
Summary of the method: as §1

[13] = test system: STEME; test: Post-emergence herbicidal action against STEME; assay type: in vivo, Stellaria media; settings: Stellaria media, 504 h; for pest or weed control at 5 g/ha: dosage 5 g/ha
Summary of the method: as §2

[14] = test system: ALOMY; test: Post-emergence herbicidal action against ALOMY; assay type: in vivo, Alopecurus myosuroides; settings: Alopecurus myosuroides, 504 h, dosage 20 g/ha, visual assessment about 3 weeks after treatment vs untreated controls
Summary of the method: as §2

[15] = test system: STEME; test: Pre-emergence herbicidal action against STEME; assay type: in vivo, Stellaria media; settings: Stellaria media, 504 h; for pest or weed control at 20 g/ha: dosage 20 g/ha; for pest or weed control at 80 g/ha: dosage 80 g/ha
Summary of the method: as §1

[16] = test system: HORMU; test: Pre-emergence herbicidal action against HORMU; assay type: in vivo, Hordeum murinum; settings: Hordeum murinum, 504 h; 80 g/ha, pre-emergence
Summary of the method: as §1

[17] = test system: SETVI; test: Pre-emergence herbicidal action against SETVI; assay type: in vivo, Setaria viridis; settings: Setaria viridis, 504 h; for pest or weed control at 20 g/ha: dosage 20 g/ha; for pest or weed control at 80 g/ha: dosage 80 g/ha
Summary of the method: as §1

[18] = test system: DIGSA; test: Post-emergence herbicidal action against DIGSA; assay type: in vivo, Digitaria sanguinalis; settings: Digitaria sanguinalis, 504 h
Summary of the method: as §2

[19] = test system: VIOTR; test: Post-emergence herbicidal action against VIOTR; assay type: in vivo, Viola tricolor; settings: Viola tricolor, 504 h
Summary of the method: as §2

[20] = test system: SETVI; test: Post-emergence herbicidal action against SETVI; assay type: in vivo, Setaria viridis; settings: Setaria viridis, 504 h; for pest or weed control at 5 g/ha: dosage 5 g/ha; for pest or weed control at 20 g/ha: dosage 20 g/ha
Summary of the method: as §2

[21] = test system: ABUTH; test: Pre-emergence herbicidal action against ABUTH; assay type: in vivo, Abutilon theophrasti; settings: Abutilon theophrasti, 504 h; for pest or weed control at 80 g/ha: scored visually after 3 weeks vs untreated controls (100% = plants have died, 0% = like control plants); for pest or weed control at 20 g/ha: dosage 20 g/ha, scored visually after 3 weeks vs untreated controls, 100% = plants have died, 0% = like control plants, read-out: Pre-emergence action against ABUTH (herbicidal activity in percent)
Summary of the method: as §1

[22] = test system: MATIN; test: Pre-emergence herbicidal action against MATIN; assay type: in vivo, Matricaria inodora; settings: Tripleurospermum inodorum, 504 h; for pest or weed control at 20 g/ha: dosage 20 g/ha; for pest or weed control at 80 g/ha: dosage 80 g/ha
Summary of the method: as §1

[23] = test system: PHBPU; test: Post-emergence herbicidal action against PHBPU; assay type: in vivo, Pharbitis purpurea; settings: Ipomoea purpurea, 504 h; for pest or weed control at 20 g/ha: dosage 20 g/ha
Summary of the method: as §2

[24] = test system: POLCO; test: Pre-emergence herbicidal action against POLCO; assay type: in vivo, Polygonum convolvulus; settings: Fallopia convolvulus, 504 h, dosage 80 g/ha
Summary of the method: as §1

[25] = test system: LOLRI; test: Pre-emergence herbicidal action against LOLRI; assay type: in vivo, Lolium rigidum; settings: Lolium rigidum, 504 h, 80 g/ha
Summary of the method: as §1

[26] = test system: VERPE; test: Post-emergence herbicidal action against VERPE; assay type: in vivo, Veronica persica; settings: Veronica persica, 504 h
Summary of the method: as §2

[27] = test system: POLCO; test: Post-emergence herbicidal action against POLCO; assay type: in vivo, Polygonum convolvulus; settings: Fallopia convolvulus, 504 h, dosage 20 g/ha
Summary of the method: as §2

[28] = test system: PHBPU; test: Pre-emergence herbicidal action against PHBPU; assay type: in vivo, Pharbitis purpurea; settings: Ipomoea purpurea, 504 h
Summary of the method: as §1

[29] = test system: HORMU; test: Post-emergence herbicidal action against HORMU; assay type: in vivo, Hordeum murinum; settings: Hordeum murinum, 504 h, dosage 20 g/ha
Summary of the method: as §2

Cn1nnnc1NC(=O)c1ccc(C(F)F)c(C(=O)NC2CC2)c1Cl [Example 1-149]
pest or weed control at 80 g/ha [1]: 100% | pest or weed control at 20 g/ha [2]: 100% | pest or weed control at 20 g/ha [3]: 100% | pest or weed control at 80 g/ha [3]: 100% | pest or weed control at 80 g/ha [4]: 90% | pest or weed control at 20 g/ha ([4]; 20 g/ha, scored visually after 3 weeks, 100% = plants have died, 0% = like control plants): 80% | pest or weed control at 20 g/ha [5]: 100% | pest or weed control at 80 g/ha [5]: 100% | pest or weed control at 20 g/ha [6]: 100% | pest or weed control at 20 g/ha [7]: 100% | pest or weed control at 20 g/ha [8]: 80% | pest or weed control at 5 g/ha [9]: 80% | pest or weed control at 20 g/ha [9]: 100% | pest or weed control at 20 g/ha [10]: 100% | pest or weed control at 80 g/ha [10]: 100% | pest or weed control at 80 g/ha [11]: 100% | pest or weed control at 20 g/ha [11]: 80% | pest or weed control at 80 g/ha [12]: 100% | pest or weed control at 20 g/ha [13]: 90% | pest or weed control at 5 g/ha [13]: 90% | pest or weed control at 20 g/ha [14]: 80% | pest or weed control at 20 g/ha [15]: 90% | pest or weed control at 80 g/ha [15]: 100% | pest or weed control at 80 g/ha [16]: 90% | pest or weed control at 20 g/ha [17]: 90% | pest or weed control at 80 g/ha [17]: 100% | pest or weed control at 5 g/ha [18]: 100% | pest or weed control at 20 g/ha [18]: 100% | pest or weed control at 5 g/ha ([19]; 5 g/ha): 100% | pest or weed control at 20 g/ha [19]: 100% | pest or weed control at 5 g/ha [20]: 100% | pest or weed control at 20 g/ha [20]: 100% | pest or weed control at 80 g/ha [21]: 100% | pest or weed control at 20 g/ha [21]: 100% | pest or weed control at 20 g/ha [22]: 100% | pest or weed control at 80 g/ha [22]: 100% | pest or weed control at 20 g/ha [23]: 90% | pest or weed control at 80 g/ha [24]: 80% | pest or weed control at 80 g/ha [25]: 90% | pest or weed control at 5 g/ha ([26]; 5 g/ha): 80% | pest or weed control at 20 g/ha ([26]; 20 g/ha): 100% | pest or weed control at 20 g/ha [27]: 100%

CCNC(=O)c1c(C(F)(F)F)ccc(C(=O)Nc2nnnn2CC)c1C [Example 2-26]
pest or weed control at 80 g/ha [1]: 100% | pest or weed control at 20 g/ha [2]: 80% | pest or weed control at 20 g/ha [3]: 100% | pest or weed control at 80 g/ha [3]: 100% | pest or weed control at 80 g/ha [4]: 100% | pest or weed control at 20 g/ha [5]: 100% | pest or weed control at 80 g/ha [5]: 100% | pest or weed control at 5 g/ha ([6]; dosage 5 g/ha): 80% | pest or weed control at 20 g/ha [6]: 90% | pest or weed control at 20 g/ha [7]: 100% | pest or weed control at 5 g/ha ([8]; dosage 5 g/ha): 80% | pest or weed control at 20 g/ha [8]: 80% | pest or weed control at 5 g/ha [9]: 100% | pest or weed control at 20 g/ha [9]: 100% | pest or weed control at 20 g/ha [10]: 100% | pest or weed control at 80 g/ha [10]: 100% | pest or weed control at 20 g/ha ([28]; dosage 20 g/ha): 90% | pest or weed control at 80 g/ha ([28]; dosage 80 g/ha): 100% | pest or weed control at 80 g/ha [11]: 100% | pest or weed control at 20 g/ha [11]: 80% | pest or weed control at 20 g/ha [13]: 90% | pest or weed control at 5 g/ha [13]: 80% | pest or weed control at 20 g/ha [14]: 80% | pest or weed control at 20 g/ha [15]: 100% | pest or weed control at 80 g/ha [15]: 100% | pest or weed control at 80 g/ha [16]: 90% | pest or weed control at 20 g/ha [17]: 80% | pest or weed control at 80 g/ha [17]: 100% | pest or weed control at 5 g/ha [18]: 90% | pest or weed control at 20 g/ha [18]: 90% | pest or weed control at 20 g/ha [19]: 80% | pest or weed control at 5 g/ha [20]: 80% | pest or weed control at 20 g/ha [20]: 100% | pest or weed control at 80 g/ha [21]: 100% | pest or weed control at 20 g/ha [21]: 100% | pest or weed control at 20 g/ha [22]: 100% | pest or weed control at 80 g/ha [22]: 100% | pest or weed control at 5 g/ha ([23]; dosage 5 g/ha): 80% | pest or weed control at 20 g/ha [23]: 80% | pest or weed control at 80 g/ha [24]: 80% | pest or weed control at 20 g/ha [29]: 80% | pest or weed control at 20 g/ha [27]: 80%
